# Legend:
# Assay in all cases: microbe, parasite or virus in culture
# [1] = system: ABC clinical isolates with SUL-DUR MIC > 4 µg/mL; assay type: cell-based, Acinetobacter baumannii-calcoaceticus complex
# In short: (§1)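 Broth microdilution MICs following CLSI methods, interpreted with CLSI breakpoints where available. Sulbactam tested as twofold dilutions combined with fixed 4 µg/mL durlobactam.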
# [2] = system: A. baumannii clinical isolates; assay type: cell-based
# In short: as §1
# [3] = system: A. nosocomialis clinical isolate; assay type: cell-based; conditions: isolate ARC7023 (IHMA 2118812), France, BSI, 2019
# In short: as §1
# [4] = system: A. pittii clinical isolates; assay type: cell-based
# In short: as §1
substance,measurement,setting,value
colistin [CST],MIC50,[1],0.5 µg/mL
same,MIC90,[1],1 µg/mL
same,MIC Max,[1],>8 µg/mL
same,MIC Min,[1],≤0.25 µg/mL
same,MIC,"[2]; isolate ARC6644 (IHMA 1420327), Mexico, UTI, 2016",≤0.25 µg/mL
same,MIC,"[2]; isolate ARC6645 (IHMA 1435703), France, UTI, 2016",≤0.25 µg/mL
same,MIC,"[2]; isolate ARC6646 (IHMA 1484127), United States, RTI, 2016",0.5 µg/mL
same,MIC,"[2]; isolate ARC6647 (IHMA 1386786), Argentina, RTI, 2016",0.5 µg/mL
same,MIC,"[2]; isolate ARC6648 (IHMA 1407634), Spain, RTI, 2016",≤0.25 µg/mL
same,MIC,"[2]; isolate ARC6650 (IHMA 1457337), Argentina, RTI, 2016",0.5 µg/mL
same,MIC,"[2]; isolate ARC6652 (IHMA 1465642), Belgium, RTI, 2016",≤0.25 µg/mL
same,MIC,"[2]; isolate ARC6653 (IHMA 1308777), Vietnam, RTI, 2016",0.5 µg/mL
same,MIC,"[2]; isolate ARC6799 (IHMA 1562935), Spain, UTI, 2017",0.5 µg/mL
same,MIC,"[2]; isolate ARC6800 (IHMA 1557526), Turkey, RTI, 2017",>8 µg/mL
same,MIC,"[2]; isolate ARC6801 (IHMA 1662094), Thailand, RTI, 2017",≤0.25 µg/mL
same,MIC,"[2]; isolate ARC6802 (IHMA 1557073), Spain, UTI, 2017",≤0.25 µg/mL
same,MIC,"[2]; isolate ARC6803 (IHMA 1589408), Belgium, UTI, 2017",≤0.25 µg/mL
same,MIC,"[2]; isolate ARC6805 (IHMA 1558650), United States, RTI, 2017",≤0.25 µg/mL
same,MIC,"[2]; isolate ARC6808 (IHMA 1557168), Spain, RTI, 2017",≤0.25 µg/mL
same,MIC,"[2]; isolate ARC6809 (IHMA 1699528), Guatemala, RTI, 2017",0.5 µg/mL
same,MIC,"[2]; isolate ARC6810 (IHMA 1699548), Guatemala, RTI, 2017",0.5 µg/mL
same,MIC,"[2]; isolate ARC6812 (IHMA 1699530), Guatemala, RTI, 2017",0.5 µg/mL
same,MIC,"[2]; isolate ARC6813 (IHMA 1699543), Guatemala, UTI, 2017",≤0.25 µg/mL
same,MIC,"[2]; isolate ARC6814 (IHMA 1699512), Guatemala, RTI, 2017",0.5 µg/mL
same,MIC,"[2]; isolate ARC6815 (IHMA 1699513), Guatemala, RTI, 2017",0.5 µg/mL
same,MIC,"[2]; isolate ARC6816 (IHMA 1699521), Guatemala, RTI, 2017",0.5 µg/mL
same,MIC,"[2]; isolate ARC6817 (IHMA 1699523), Guatemala, RTI, 2017",0.5 µg/mL
same,MIC,"[2]; isolate ARC6818 (IHMA 1683261), Thailand, RTI, 2017",≤0.25 µg/mL
same,MIC,"[2]; isolate ARC6819 (IHMA 1683267), Thailand, RTI, 2017",1 µg/mL
same,MIC,"[2]; isolate ARC6820 (IHMA 1647876), Argentina, RTI, 2017",≤0.25 µg/mL
same,MIC,"[2]; isolate ARC6821 (IHMA 1699517), Guatemala, RTI, 2017",0.5 µg/mL
same,MIC,"[2]; isolate ARC6822 (IHMA 1637626), Guatemala, RTI, 2017",0.5 µg/mL
same,MIC,"[2]; isolate ARC6823 (IHMA 1620872), Greece, SSSI, 2017",1 µg/mL
same,MIC,"[2]; isolate ARC6824 (IHMA 1625487), Argentina, BSI, 2017",1 µg/mL
same,MIC,"[2]; isolate ARC6937 (IHMA 1562926), Spain, UTI, 2017",0.5 µg/mL
same,MIC,"[2]; isolate ARC6950 (IHMA 1820064), Israel, RTI, 2018",0.5 µg/mL
same,MIC,"[2]; isolate ARC6953 (IHMA 1909827), Turkey, IAI, 2018",0.5 µg/mL
same,MIC,"[2]; isolate ARC6954 (IHMA 1838192), Guatemala, SSSI, 2018",0.5 µg/mL
same,MIC,"[2]; isolate ARC6955 (IHMA 1825425), United States, RTI, 2018",0.5 µg/mL
same,MIC,"[2]; isolate ARC7008 (IHMA 2009813), Thailand, BSI, 2019",0.5 µg/mL
same,MIC,"[2]; isolate ARC7009 (IHMA 2043611), United States, UTI, 2019",0.5 µg/mL
same,MIC,"[2]; isolate ARC7010 (IHMA 2043398), United States, RTI, 2019",0.5 µg/mL
same,MIC,"[2]; isolate ARC7011 (IHMA 2104553), Germany, RTI, 2019",0.5 µg/mL
same,MIC,"[2]; isolate ARC7012 (IHMA 2010001), Thailand, RTI, 2019",1 µg/mL
same,MIC,"[2]; isolate ARC7013 (IHMA 1962831), Argentina, RTI, 2019",0.5 µg/mL
same,MIC,"[2]; isolate ARC7014 (IHMA 2045328), Guatemala, IAI, 2019",1 µg/mL
same,MIC,"[2]; isolate ARC7015 (IHMA 2045327), Guatemala, UTI, 2019",0.5 µg/mL
same,MIC,"[2]; isolate ARC7016 (IHMA 2148441), Brazil, BSI, 2019",0.5 µg/mL
same,MIC,"[2]; isolate ARC7017 (IHMA 2148446), Brazil, BSI, 2019",≤0.25 µg/mL
same,MIC,"[2]; isolate ARC7018 (IHMA 2045454), Guatemala, IAI, 2019",0.5 µg/mL
same,MIC,"[2]; isolate ARC7019 (IHMA 2114463), Thailand, RTI, 2019",0.5 µg/mL
same,MIC,"[2]; isolate ARC7020 (IHMA 2045326), Guatemala, RTI, 2019",0.5 µg/mL
same,MIC,"[2]; isolate ARC7021 (IHMA 1966347), Guatemala, RTI, 2019",1 µg/mL
same,MIC,"[2]; isolate ARC7022 (IHMA 2045319), Guatemala, IAI, 2019",0.5 µg/mL
same,MIC,"[2]; isolate ARC7024 (IHMA 2059448), Turkey, RTI, 2019",1 µg/mL
same,MIC,"[2]; isolate ARC7025 (IHMA 2002121), Spain, RTI, 2019",0.5 µg/mL
same,MIC,"[2]; isolate ARC7026 (IHMA 2104494), Guatemala, BSI, 2019",0.5 µg/mL
same,MIC,"[2]; isolate ARC7082 (IHMA 2160640), Belgium, BSI, 2020",≤0.25 µg/mL
same,MIC,"[2]; isolate ARC7083 (IHMA 2163687), United States, RTI, 2020",0.5 µg/mL
same,MIC,"[2]; isolate ARC7084 (IHMA 2189596), Germany, RTI, 2020",≤0.25 µg/mL
same,MIC,"[2]; isolate ARC7085 (IHMA 2205747), Guatemala, IAI, 2020",≤0.25 µg/mL
same,MIC,"[2]; isolate ARC7086 (IHMA 2207563), Israel, RTI, 2020",≤0.25 µg/mL
same,MIC,"[2]; isolate ARC7088 (IHMA 2215554), Turkey, BSI, 2020",≤0.25 µg/mL
same,MIC,"[2]; isolate ARC7089 (IHMA 2240345), Argentina, BSI, 2020",≤0.25 µg/mL
same,MIC,"[2]; isolate ARC7090 (IHMA 2244410), Poland, RTI, 2020",>8 µg/mL
same,MIC,"[2]; isolate ARC7091 (IHMA 2244564), Australia, RTI, 2020",≤0.25 µg/mL
same,MIC,"[2]; isolate ARC7092 (IHMA 2258772), United States, BSI, 2020",0.5 µg/mL
same,MIC,"[2]; isolate ARC7093 (IHMA 2258783), United States, RTI, 2020",≤0.25 µg/mL
same,MIC,"[2]; isolate ARC7094 (IHMA 2296423), Turkey, RTI, 2020",≤0.25 µg/mL
same,MIC,"[2]; isolate ARC7095 (IHMA 2320843), Turkey, BSI, 2020",≤0.25 µg/mL
same,MIC,"[2]; isolate ARC7156 (IHMA 2455450), Greece, RTI, 2021",8 µg/mL
same,MIC,"[2]; isolate ARC7158 (IHMA 2523738), Italy, BSI, 2021",0.25 µg/mL
same,MIC,"[2]; isolate ARC7159 (IHMA 2456229), Malaysia, RTI, 2021",0.25 µg/mL
same,MIC,"[2]; isolate ARC7160 (IHMA 2458626), Thailand, RTI, 2021",0.25 µg/mL
same,MIC,"[2]; isolate ARC7161 (IHMA 2429252), Ukraine, RTI, 2021",0.5 µg/mL
same,MIC,"[2]; isolate ARC7162 (IHMA 2411847), United States, BSI, 2021",0.25 µg/mL
same,MIC,"[2]; isolate ARC7163 (IHMA 2477704), United States, BSI, 2021",0.25 µg/mL
same,MIC,[3],1 µg/mL
same,MIC,"[4]; isolate ARC6949 (IHMA 1898982), Romania, RTI, 2018",0.5 µg/mL
same,MIC,"[4]; isolate ARC6951 (IHMA 1776233), Philippines, RTI, 2018",≤0.25 µg/mL
same,MIC,"[4]; isolate ARC6952 (IHMA 1899008), Romania, RTI, 2018",1 µg/mL
same,MIC,"[4]; isolate ARC7087 (IHMA 2212062), Colombia, BSI, 2020",≤0.25 µg/mL
